Results taken from US9850282B2, “Stable pentadecapeptide salts, a process for preparation thereof, a use thereof in the manufacture of pharmaceutical preparations and a use thereof in therapy” (priority 2013, dated 2017).
Read-outs that look alike come from different tables or passages of the source. No end group written: not given here.

Assays:
[1] = Collateral vessel presentation after femoral artery removal; type: in vivo, rats; settings: 5-10 min after removal of femoral artery part; local 1 min bath (bepecin 10 μg/kg, L-arginine 100 mg/kg, L-NAME 5 mg/kg)
From the text: Bepecin has a particular beneficial effect after large blood vessel removal. Unlike L-NAME and L-arginine, bepecin rapidly bridges defect between the stumps of the vessel, thus even in the case of the worst scenario, rapidly reorganizing blood supply. Part of femoral artery in rats (between a. epigastrica caudalis and a. femoralis circumflexa lateralis) was removed in order to investigate collateral vessel presentation within vascular defect following formation of critical size vascular defect. Collateral vessel presentation within vascular defect was assessed according to the method described for microangiographic assessment in Cardiovasc Res. 1997 September; 35(3): 547-52. Thermographic imaging was performed using an infrared camera.

HSV-1 and HSV-2 = test: Newborn mice, intracerebral inoculation with HSV-1 and HSV-2; type: in vivo; settings: lethally infected newborn mice; agents applied 48 or 72 hours after viral infection; bepecin 10 and 100 μg/kg, acyclovir 10 and 100 mg/kg
[2] = Anaphylactoid reaction induced by dextran and/or egg white; type: in vivo, rats, mouse; settings: dextran and/or egg white i.v.; bepecin 10 μg, 1 μg, 10 ng, 10 pg/kg; clomipramine 20 mg/kg, cimetidine 10 mg/kg alone
[3] = Accelerated ageing at 50° C. and relative humidity of 65%; type: physicochemical
[4] = Stability in water solutions (1 g/100 ml) at 50° C.; type: physicochemical; settings: for Pentadecapeptide content decrement in water at 50° C./time (hours): 20: 20 hours; for Pentadecapeptide content decrement in water at 50° C./time (hours): 65: 65 hours; for Pentadecapeptide content decrement in water at 50° C./time (hours): 148: 148 hours; for Pentadecapeptide content decrement in water at 50° C./time (hours): 388: 388 hours; for Pentadecapeptide content decrement in water at 50° C./time (hours): start/0: start/0 hours
Description: (§1) This addition will be in the range from 0.5 mg to 3.0 mg per 1 mg of bepecin. […] The stability of bepecin salt with L-arginine in water solutions was determined after incubation of aqueous salt solutions in concentration 1 g/100 ml, at 50° C., and in a separate test in very stringent conditions: at 100° C., where the decomposition was determined after one hour.

[5] = 1 g/100 ml of water, 20° C., 253.7 nm, 70 min
Acute toxicity = type: in vivo, Wistar Albino rats; settings: 1 g/kg body weight, intraperitoneally, intravenously or intragastrically
[6] = simulated gastric fluid, 37° C.
in vitro = settings: artificial gastric juice with pepsin, 37° C.
[7] = 37° C.; for Pentadecapeptide content decrement (rel. %) in gastric juice at pH = 2.0, 2.5 hours: 150 min; for Pentadecapeptide content decrement (rel. %) in gastric juice at pH = 4.0, 6 hours: 360 min; for Pentadecapeptide content decrement (rel. %) in gastric juice at pH = 4.0, 7 hours: 420 min; for Pentadecapeptide content decrement (rel. %) in gastric juice at pH = 4.0, 8 hours: 480 min; for Pentadecapeptide content decrement (rel. %) in gastric juice at pH = 2.0, 1.5 hours: 90 min
[8] = Stability in water at 100° C., 1 hour; type: physicochemical
Description: as §1

[9] = intravenously, orally or intraperitoneally, 10 ng to 100 mg/kg; cited from earlier work
[10] = Bleeding and thrombocytopenia after amputation; type: in vivo, rats; settings: bepecin by itself
Description: Bepecin was administered intraperitoneally, intravenously or intragastrically (10 μg/kg, 10 ng/kg body weight).

[11] = pH 2, Pentadecapeptide content decrement (rel. %) in gastric juice at pH = 2.0, 0.5 hours, pH 2.0
[12] = pH 3, Pentadecapeptide content decrement (rel. %) in gastric juice at pH = 3.0, 0.5 hours, pH 3.0
[13] = pH 2, Pentadecapeptide content decrement (rel. %) in gastric juice at pH = 2.0, 1.0 hours, pH 2.0, 1.0 h
[14] = pH 2, Pentadecapeptide content decrement (rel. %) in gastric juice at pH = 2.0, 2.0 hours, pH 2.0, 2.0 h
[15] = pH 4, Pentadecapeptide content decrement (rel. %) in gastric juice at pH = 4.0, 3 hours, pH 4.0, 3 h
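Wherever Pentadecapeptide content decrement (rel. %) in gastric juice at pH = 2.0, 0 hours is given: peptide salt at 10 mg/5 ml incubated in artificial gastric juice (HCl, NaCl, pepsin 1.0 g/l) at the listed pH and 37° C, peptide content tracked over time.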
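Wherever Pentadecapeptide content decrement (rel. %) in gastric juice at pH = 2.0, 2.5 hours is given: peptide salt at 10 mg/5 ml incubated in artificial gastric juice (HCl, NaCl, pepsin 1.0 g/l) at the listed pH and 37° C, peptide content tracked over time.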
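Wherever Pentadecapeptide content decrement (rel. %) in gastric juice at pH = 3.0, 0 hours is given: peptide salt at 10 mg/5 ml incubated in artificial gastric juice (HCl, NaCl, pepsin 1.0 g/l) at the listed pH and 37° C, peptide content tracked over time.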
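Wherever Pentadecapeptide content decrement (rel. %) in gastric juice at pH = 3.0, 3.0 hours is given: peptide salt at 10 mg/5 ml incubated in artificial gastric juice (HCl, NaCl, pepsin 1.0 g/l) at the listed pH and 37° C, peptide content tracked over time.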

## COC(=O)[C@@H](N)CCCNC(=N)N[N+](=O)[O-] [L-NAME]
[1]
  Collateral vessel presentation within vascular defect: no collateral vessels are present

## N=C(N)NCCC[C@H](N)C(=O)O [L-arginine]
[1]
  Collateral vessel presentation within vascular defect: Tiny collateral vessels were present, yet without interconnections

## Nc1nc2c(ncn2COCCO)c(=O)[nH]1 [acyclovir]
HSV-1 and HSV-2
  Survival time (max.): 115 h
  Survival time (min.): 105 h

## CN/C(=N/CCSCc1nc[nH]c1C)NC#N [cimetidine]
[2]
  Effect on anaphylactoid reactions: only poorly effective or even ineffective

## CN(C)CCCN1c2ccccc2CCc2ccc(Cl)cc21 [clomipramine]
[2]
  Effect on anaphylactoid reactions: only poorly effective or even ineffective

## Bepecin L-Lysine Salt (1:3) [Lys-BPC]
[3]; 0 day
  Pentadecapeptide content decrement in standing at 50° C. and relat. humidity 65%: 0 day: 99.47%
[3]; 10 days
  Pentadecapeptide content decrement in standing at 50° C. and relat. humidity 65%: 10 days: 99.24%
[3]; 30 days
  Pentadecapeptide content decrement in standing at 50° C. and relat. humidity 65%: 30 days: 99.27%
[3]
  Pentadecapeptide content decrement in standing at 50° C. and relat. humidity 65%: 60 days: 98.90%
  Pentadecapeptide content decrement in standing at 50° C. and relat. humidity 65%: 90 days: 99.28%
[4]
  Pentadecapeptide content decrement in water at 50° C./time (hours): 20: 99.40%
  Pentadecapeptide content decrement in water at 50° C./time (hours): 65: 99.09%
  Pentadecapeptide content decrement in water at 50° C./time (hours): 148: 99.35%
  Pentadecapeptide content decrement in water at 50° C./time (hours): 388: 99.01%
  Pentadecapeptide content decrement in water at 50° C./time (hours): start/0: 99.07%

## GEPPPGKPADDAGLV [Arg-BPC, bepecin L-arginine salt (1:2)]
[3]
  Pentadecapeptide content decrement in standing at 50° C. and relat. humidity 65%: 60 days: 98.96%
  Pentadecapeptide content decrement in standing at 50° C. and relat. humidity 65%: 90 days: 99.07%
[5]
  Stability of aqueous solution under ultraviolet light: stable
Acute toxicity
  Acute toxicity: no toxicity and no adverse effects
[6]; [11]
  remaining at 0.5 h: 30.2%
[6]; [12]
  remaining at 0.5 h: 98.1%
[6]; pH 4, Pentadecapeptide content decrement (rel. %) in gastric juice at pH = 4.0, 1 hours, pH 4.0, 1 h
  remaining at 1 h: 99.9%
[6]; pH 4, Pentadecapeptide content decrement (rel. %) in gastric juice at pH = 4.0, 2 hours, pH 4.0, 2 h
  remaining at 2 h: 99.5%
[4]
  Pentadecapeptide content decrement in water at 50° C./time (hours): 20: 98.97%
  Pentadecapeptide content decrement in water at 50° C./time (hours): 65: 99.04%
  Pentadecapeptide content decrement in water at 50° C./time (hours): 148: 99.10%
  Pentadecapeptide content decrement in water at 50° C./time (hours): 388: 99.01%
  Pentadecapeptide content decrement in water at 50° C./time (hours): start/0: 99.05%
[4]; aqueous salt solution 1 g/100 ml
  pH: 7.35
In vitro; [13]
  remaining at 1 h: 13.5%
In vitro; pH 2, Pentadecapeptide content decrement (rel. %) in gastric juice at pH = 2.0, 1.5 hours, pH 2.0, 1.5 h
  remaining at 1.5 h, 10 mg/5 ml: 8.2%
In vitro; [14]
  remaining at 2 h: 6%
In vitro; pH 3, Pentadecapeptide content decrement (rel. %) in gastric juice at pH = 3.0, 4.0 hours, pH 3.0, 4.0 h
  remaining at 4 h, 10 mg/5 ml: 87.2%
In vitro; pH 3, Pentadecapeptide content decrement (rel. %) in gastric juice at pH = 3.0, 5.0 hours, pH 3.0, 5.0 h
  remaining at 5 h, 10 mg/5 ml: 84.9%
In vitro; [15]
  remaining at 3 h, 10 mg/5 ml: 98.7%
In vitro; pH 4, Pentadecapeptide content decrement (rel. %) in gastric juice at pH = 4.0, 4 hours, pH 4.0, 4 h
  remaining at 4 h, 10 mg/5 ml: 96.1%
In vitro; pH 4, Pentadecapeptide content decrement (rel. %) in gastric juice at pH = 4.0, 5 hours, pH 4.0, 5 h
  remaining at 5 h, 10 mg/5 ml: 89.8%
[7]
  Pentadecapeptide content decrement (rel. %) in gastric juice at pH = 2.0, 0 hours: 100 rel. %
  Pentadecapeptide content decrement (rel. %) in gastric juice at pH = 2.0, 2.5 hours: 4.9 rel. %
  Pentadecapeptide content decrement (rel. %) in gastric juice at pH = 3.0, 0 hours: 100 rel. %
[7]; 180 min
  Pentadecapeptide content decrement (rel. %) in gastric juice at pH = 3.0, 3.0 hours: 90.0 rel. %
[7]; pH 4.0
  Pentadecapeptide content decrement (rel. %) in gastric juice at pH = 4.0, 0 hours: 100 rel. %
  Pentadecapeptide content decrement (rel. %) in gastric juice at pH = 4.0, 6 hours: 84.6 rel. %
  Pentadecapeptide content decrement (rel. %) in gastric juice at pH = 4.0, 7 hours: 73.5 rel. %
  Pentadecapeptide content decrement (rel. %) in gastric juice at pH = 4.0, 8 hours: 67.2 rel. %
[8]; after 1 hour
  Pentadecapeptide content decrement in water at 100° C. - 1 hour: after 1 hour: 99.08% (unchanged!)
[8]; start
  Pentadecapeptide content decrement in water at 100° C. - 1 hour: start: 99.05%

## GEPPPGKPADDAGLV [BPC Na salt]
[7]
  Pentadecapeptide content decrement (rel. %) in gastric juice at pH = 2.0, 0 hours: 100 rel. %
  Pentadecapeptide content decrement (rel. %) in gastric juice at pH = 2.0, 1.5 hours: 4.4 rel. %
  Pentadecapeptide content decrement (rel. %) in gastric juice at pH = 2.0, 2.5 hours: 2.7 rel. %
  Pentadecapeptide content decrement (rel. %) in gastric juice at pH = 3.0, 0 hours: 100 rel. %
[7]; 180 min
  Pentadecapeptide content decrement (rel. %) in gastric juice at pH = 3.0, 3.0 hours: 40.2 rel. %
[7]; pH 4.0
  Pentadecapeptide content decrement (rel. %) in gastric juice at pH = 4.0, 0 hours: 100 rel. %
  Pentadecapeptide content decrement (rel. %) in gastric juice at pH = 4.0, 6 hours: 76.3 rel. %
  Pentadecapeptide content decrement (rel. %) in gastric juice at pH = 4.0, 7 hours: 68.2 rel. %
  Pentadecapeptide content decrement (rel. %) in gastric juice at pH = 4.0, 8 hours: 60.9 rel. %
[7]; pH 4.0, 3 h, 180 min
  Pentadecapeptide content decrement (rel. %) in gastric juice at pH = 4.0, 3 hours: 94.6 rel. %

## GEPPPGKPADDAGLV [BPC acetate]
[6]; [13]
  remaining at 1 h: 8.2%
[6]; [14]
  remaining at 2 h: 2.46%
[6]; pH 3, Pentadecapeptide content decrement (rel. %) in gastric juice at pH = 3.0, 3.0 hours, pH 3.0, 3.0 h
  remaining at 3 h: 2.5%
[6]; [15]
  remaining at 3 h: 72.5%
In vitro; [11]
  remaining at 0.5 h, 10 mg/5 ml: 21.4%
In vitro; [12]
  remaining at 0.5 h, 10 mg/5 ml: 41.7%
[7]
  Pentadecapeptide content decrement (rel. %) in gastric juice at pH = 2.0, 0 hours: 100 rel. %
  Pentadecapeptide content decrement (rel. %) in gastric juice at pH = 2.0, 1.5 hours: 4.75 rel. %
  Pentadecapeptide content decrement (rel. %) in gastric juice at pH = 2.0, 2.5 hours: 2.1 rel. %
  Pentadecapeptide content decrement (rel. %) in gastric juice at pH = 3.0, 0 hours: 100 rel. %
[7]; pH 4.0
  Pentadecapeptide content decrement (rel. %) in gastric juice at pH = 4.0, 0 hours: 100 rel. %
  Pentadecapeptide content decrement (rel. %) in gastric juice at pH = 4.0, 6 hours: 48.8 rel. %
  Pentadecapeptide content decrement (rel. %) in gastric juice at pH = 4.0, 7 hours: 44.6 rel. %
  Pentadecapeptide content decrement (rel. %) in gastric juice at pH = 4.0, 8 hours: 38.0 rel. %

## Gly Glu Pro Pro Pro Gly Lys Pro Ala Asp Asp Ala Gly Leu Val (GEPPPGKPADDAGLV; also: salts with basic amino acids) [Peptide bepecin]
[9]
  Toxic changes (LD50, acute, subchronic and chronic toxicity): did not induce any toxic changes

## H-GEPPPGKPADDAGLV-OH [Bepecin]
[10]
  Coagulation parameters: does not affect the coagulation parameters by itself
